Data on 20 compounds can be found in patent publication US10131679B2, “Substituted dihydropyrrolopyrazole compound” (UBE INDUSTRIES, LTD., priority 2014, dated 2018).

For one assay, the target named is T1, CDK7 (Homo sapiens, UniProt P50613).
T1 construct: purchased Carna Biosciences, Inc. 04-108
The assay can be described thus: CDK7 enzyme inhibition test. In kind it is biochemical. Conditions: Ki=IC50/(1+S/Km); 33P bound to MBP, [γ-33P]ATP, 30° C. for 20 minutes; read-out: Ki value of CDK7 inhibitory activity. In short, it runs like this:
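Recombinant CDK7 with MBP substrate and [γ-33P]ATP (500 μM solution, diluted into the mix) in HEPES pH 7.4/DTT/Triton X-100/MgCl2, 20 min at 30 °C. TCA-precipitated 33P-MBP counted by scintillation; IC50 from inhibition, Ki = IC50/(1+S/Km).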

The next assay concerns the target T2, CDK2 (Homo sapiens, UniProt P24941).
T2 construct: purchased Invitrogen Corp. PV3267
The assay can be described thus: CDK2 enzyme inhibition test. Format: biochemical. Conditions: Ki=IC50/(1+S/Km); 33P bound to MBP, [γ-33P]ATP, 30° C. for 20 minutes; read-out: Ki value of CDK2 inhibitory activity. On the procedure:
CDK2 Enzyme Inhibition Test
The preparation of a buffer solution was performed by mixing a HEPES buffer solution (pH 7.4), DTT, Triton X-100, and MgCl2. A 500 μM [γ-^33P]ATP solution was used by diluting a 10 mM ATP solution and a commercially available [γ-^33P]ATP solution (manufactured by PerkinElmer, Inc., Code No. NEG-302H) with the buffer solution. A CDK2 solution was used by diluting commercially available CDK2 (manufactured by Invitrogen Corp., Catalog No. PV3267) with the buffer solution. A substrate solution was used by diluting MBP with the buffer solution. As for the preparation of a reaction solution, the buffer solution, the 500 μM [γ-^33P]ATP solution, the CDK2 solution, and the substrate solution were mixed at 4° C. to obtain a reaction solution.
CDK2 enzyme reaction was performed by adding 5 μL of a test compound solution prepared with 10% DMSO/90% injectable distilled water, and 45 μL of the reaction solution in a 1.5 mL microtube at 4° C. and reacting in the microtube at 30° C. for 20 minutes in a water bath incubator. After the reaction, a 10% aqueous TCA solution was added to each microtube while cooled to 4° C., and mixed to terminate the reaction. The resultant was left standing at 4° C. for 10 minutes and then centrifuged in a centrifuge, and the supernatant was discarded. Next, a 2% aqueous TCA solution was added, mixed thereto, and then centrifuged in a centrifuge, and the supernatant was discarded. This washing operation was performed twice. After the washing, precipitates were dissolved in a 1 N aqueous NaOH solution, and the radioactivity was measured with a liquid scintillation counter.
The calculation of the inhibitory activity of the test compound against CDK2 was performed as a test compound concentration inhibiting 50% of the amount of ^33P bound to MBP (IC50 value) by using EXSUS (version 8.0.0 or version 8.0.1, manufactured by CAC Exicare Corp.).
The calculation of a Ki value was performed according to the following calculation expression. S means the concentration of ATP contained in the reaction solution, and Km means a Michaelis-Menten constant. Ki=IC50/(1+S/Km)

T1 sequence (P50613 whole entry): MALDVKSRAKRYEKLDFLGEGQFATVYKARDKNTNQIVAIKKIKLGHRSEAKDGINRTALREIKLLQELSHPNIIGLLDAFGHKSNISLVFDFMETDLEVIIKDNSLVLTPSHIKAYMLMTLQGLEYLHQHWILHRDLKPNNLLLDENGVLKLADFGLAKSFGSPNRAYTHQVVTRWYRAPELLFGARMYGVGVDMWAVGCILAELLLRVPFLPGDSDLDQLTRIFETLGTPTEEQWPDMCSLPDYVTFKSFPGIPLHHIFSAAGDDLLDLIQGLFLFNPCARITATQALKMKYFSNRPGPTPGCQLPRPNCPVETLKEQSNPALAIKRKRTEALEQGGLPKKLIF
T1 sequence (P51946 whole entry partner): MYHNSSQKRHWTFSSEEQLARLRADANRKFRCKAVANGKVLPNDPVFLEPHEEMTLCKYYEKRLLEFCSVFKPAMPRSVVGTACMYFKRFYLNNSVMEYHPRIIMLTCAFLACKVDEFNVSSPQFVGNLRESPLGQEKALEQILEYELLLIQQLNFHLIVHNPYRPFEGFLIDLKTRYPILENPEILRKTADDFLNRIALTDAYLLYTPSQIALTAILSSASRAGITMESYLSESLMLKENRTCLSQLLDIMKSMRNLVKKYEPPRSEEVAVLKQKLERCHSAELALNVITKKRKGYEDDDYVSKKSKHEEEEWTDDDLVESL
T1 sequence (P51948 whole entry partner): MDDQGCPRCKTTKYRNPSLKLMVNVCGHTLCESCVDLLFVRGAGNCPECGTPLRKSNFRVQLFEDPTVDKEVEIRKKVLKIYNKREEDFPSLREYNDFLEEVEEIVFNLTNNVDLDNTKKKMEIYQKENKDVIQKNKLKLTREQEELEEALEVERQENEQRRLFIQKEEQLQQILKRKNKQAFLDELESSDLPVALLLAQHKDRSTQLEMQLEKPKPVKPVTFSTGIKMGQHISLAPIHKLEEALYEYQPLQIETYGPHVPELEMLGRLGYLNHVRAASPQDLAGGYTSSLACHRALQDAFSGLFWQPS

Consider `CC(C)(CO)C(NC(=O)N1Cc2c(NC(=O)C3([Si](C)(C)C)CCC3)n[nH]c2C1(C)C)c1ccccc1` (single isomer, unassigned; (-)) [IV-673, (−)-N-(3-Hydroxy-2,2-dimethyl-1-phenylpropyl)-6,6-dimethyl-3-[1-(trimethylsilyl)cyclobutanecarboxamido]-4,6-dihydropyrrolo[3,4-c]pyrazole-5(1H)-carboxamide], for which, on CDK7, the Ki is no more than 0.05 µM.

Regarding `CC1(C)c2[nH]nc(NC(=O)C3([Si](C)(C)C)CCC3)c2CN1C(=O)O[C@H](CO)c1ccccc1` [IV-2, (S)-2-Hydroxy-1-phenylethyl 6,6-dimethyl-3-[1-(trimethylsilyl)cyclobutanecarboxamido]-4,6-dihydropyrrolo[3,4-c]pyrazole-5(1H)-carboxylate], the inhibitory constant (Ki) was no less than 1 µM at CDK2 and no more than 0.05 µM on CDK7.

In the case of `CC[Si](C)(C)C1(C(=O)Nc2n[nH]c3c2CN(C(=O)N[C@H](CO)c2ccccc2)C3(C)C)CCC1` [IV-117, (S)-3-[1-(Ethyldimethylsilyl)cyclobutanecarboxamido]-N-(2-hydroxy-1-phenylethyl)-6,6-dimethyl-4,6-dihydropyrrolo[3,4-c]pyrazole-5(1H)-carboxamide], the inhibitory constant (Ki) was no less than 1 µM at CDK2 and no more than 0.05 µM on CDK7.

Turning to `CN(C(=O)N1Cc2c(NC(=O)C3([Si](C)(C)C)CCC3)n[nH]c2C1(C)C)[C@H](CO)c1ccccc1` [IV-119, (S)—N-(2-Hydroxy-1-phenylethyl)-N,6,6-trimethyl-3-[1-(trimethylsilyl)cyclobutanecarboxamido]-4,6-dihydropyrrolo[3,4-c]pyrazole-5(1H)-carboxamide], the inhibition constant Ki at CDK2 was no less than 1 µM; on CDK7, no more than 0.05 µM.

`CC1(C)c2[nH]nc(NC(=O)C3([Si](C)(C)C)CCC3)c2CN1C(=O)N[C@H](CCCCO)c1ccccc1` [IV-291, (R)—N-(5-Hydroxy-1-phenylpentyl)-6,6-dimethyl-3-[1-(trimethylsilyl)cyclobutanecarboxamido]-4,6-dihydropyrrolo[3,4-c]pyrazole-5(1H)-carboxamide]: the results for the Ki at CDK2 and at CDK7 were no less than 1 µM and no more than 0.05 µM, respectively.

Take `CC1(C)c2[nH]nc(NC(=O)C3([Si](C)(C)C)CCC3)c2CN1C(=O)NCCO` [IV-438, N-(2-Hydroxyethyl)-6,6-dimethyl-3-[1-(trimethylsilyl)cyclobutanecarboxamido]-4,6-dihydropyrrolo[3,4-c]pyrazole-5(1H)-carboxamide]: the Ki is no less than 1 µM at CDK2 and no more than 0.05 µM on CDK7.

As for `C[C@@H](CO)NC(=O)N1Cc2c(NC(=O)C3([Si](C)(C)C)CCC3)n[nH]c2C1(C)C` [IV-455, (S)—N-(1-Hydroxypropan-2-yl)-6,6-dimethyl-3-[1-(trimethylsilyl)cyclobutanecarboxamido]-4,6-dihydropyrrolo[3,4-c]pyrazole-5(1H)-carboxamide], the Ki at CDK2 is no less than 1 µM; on CDK7, no more than 0.05 µM.

`CC(C)[C@@H](CO)NC(=O)N1Cc2c(NC(=O)C3([Si](C)(C)C)CCC3)n[nH]c2C1(C)C` [IV-475, (S)—N-(1-Hydroxy-3-methylbutan-2-yl)-6,6-dimethyl-3-[1-(trimethylsilyl)cyclobutanecarboxamido]-4,6-dihydropyrrolo[3,4-c]pyrazole-5(1H)-carboxamide]: the results for the Ki on CDK2 and at CDK7 were no less than 1 µM and no more than 0.05 µM, respectively.

Consider `CC1(C)c2[nH]nc(NC(=O)C3([Si](C)(C)C)CCC3)c2CN1C(=O)N[C@H](CO)C1CCCCC1` [IV-495, (S)—N-(1-Cyclohexyl-2-hydroxyethyl)-6,6-dimethyl-3-[1-(trimethylsilyl)cyclobutanecarboxamido]-4,6-dihydropyrrolo[3,4-c]pyrazole-5(1H)-carboxamide], for which the inhibitory constant (Ki) on CDK2 is no less than 1 µM; at CDK7, no more than 0.05 µM.

Consider `CC1(C)c2[nH]nc(NC(=O)C3([Si](C)(C)C)CCC3)c2CN1C(=O)C(CO)c1ccccc1` (centres unmarked) [IV-632, N-[5-(3-Hydroxy-2-phenylpropanoyl)-6,6-dimethyl-1,4,5,6-tetrahydropyrrolo[3,4-c]pyrazol-3-yl]-1-(trimethylsilyl)cyclobutanecarboxamide], for which the Ki on CDK2 was no less than 1 µM; on CDK7 it was no more than 0.05 µM.

Regarding `CC1(C)c2[nH]nc(NC(=O)C3([Si](C)(C)C)CCC3)c2CN1C(=O)NC(c1ccccc1)C1(CO)CCC1` (centres unmarked) [IV-718, N-{[1-(Hydroxymethyl)cyclobutyl](phenyl)methyl}-6,6-dimethyl-3-[1-(trimethylsilyl)cyclobutanecarboxamido]-4,6-dihydropyrrolo[3,4-c]pyrazole-5(1H)-carboxamide], the inhibition constant (Ki) on CDK2 was no less than 1 µM.

Regarding `CC1(C)c2[nH]nc(NC(=O)C3([Si](C)(C)C)CCC3)c2CN1C(=O)N[C@H](CC1(O)CC1)c1ccccc1` [IV-743, (R)—N-[2-(1-Hydroxycyclopropyl)-1-phenylethyl]-6,6-dimethyl-3-[1-(trimethylsilyl)cyclobutanecarboxamido]-4,6-dihydropyrrolo[3,4-c]pyrazole-5(1H)-carboxamide], the results for the inhibition constant (Ki) at CDK2 and on CDK7 were no less than 1 µM and no more than 0.05 µM, respectively.

Regarding `CC(C)(O)C[C@@H](NC(=O)N1Cc2c(NC(=O)C3([Si](C)(C)C)CCC3)n[nH]c2C1(C)C)c1cccc(F)c1` [IV-911, (R)—N-[1-(3-Fluorophenyl)-3-hydroxy-3-methylbutyl]-6,6-dimethyl-3-[1-(trimethylsilyl)cyclobutanecarboxamido]-4,6-dihydropyrrolo[3,4-c]pyrazole-5(1H)-carboxamide], the Ki was no less than 1 µM on CDK2 and no more than 0.05 µM at CDK7.

`CC(C)(O)C[C@@H](NC(=O)N1Cc2c(NC(=O)C3([Si](C)(C)C)CCC3)n[nH]c2C1(C)C)c1ccc(F)cc1` [IV-939, (R)—N-[1-(4-Fluorophenyl)-3-hydroxy-3-methylbutyl]-6,6-dimethyl-3-[1-(trimethylsilyl)cyclobutanecarboxamido]-4,6-dihydropyrrolo[3,4-c]pyrazole-5(1H)-carboxamide]: the figures for the Ki on CDK2 and at CDK7 were no less than 1 µM and no more than 0.05 µM, respectively.

For the compound `CC(C)(CO)C(NC(=O)N1Cc2c(NC(=O)C3([Si](C)(C)C)CCC3)n[nH]c2C1(C)C)c1ccc(F)cc1` (centres unmarked) [IV-946, N-[1-(4-Fluorophenyl)-3-hydroxy-2,2-dimethylpropyl]-6,6-dimethyl-3-[1-(trimethylsilyl)cyclobutanecarboxamido]-4,6-dihydropyrrolo[3,4-c]pyrazole-5(1H)-carboxamide], at CDK2, the Ki is no less than 1 µM.

Consider `CC1(C)c2[nH]nc(NC(=O)C3([Si](C)(C)C)CCC3)c2CN1C(=O)[C@H](OC(F)(F)F)c1ccccc1` [IV-1184, (R)—N-{6,6-Dimethyl-5-[2-phenyl-2-(trifluoromethoxy)acetyl]-1,4,5,6-tetrahydropyrrolo[3,4-c]pyrazol-3-yl}-1-(trimethylsilyl)cyclobutanecarboxamide], for which the inhibition constant (Ki) at CDK2 was no less than 1 µM.

Regarding `CC1(C)c2[nH]nc(NC(=O)C3([Si](C)(C)C)CCC3)c2CN1C(=O)[C@H](OC1CC1)c1ccccc1` [IV-1208, (R)—N-[5-(2-Cyclopropoxy-2-phenylacetyl)-6,6-dimethyl-1,4,5,6-tetrahydropyrrolo[3,4-c]pyrazol-3-yl]-1-(trimethylsilyl)cyclobutanecarboxamide], on CDK7, the inhibition constant Ki was no more than 0.05 µM.

Consider `CO[C@@H](C(=O)N1Cc2c(NC(=O)C3([Si](C)(C)C)CCC3)n[nH]c2C1(C)C)c1ccccc1F` [IV-1383, (R)—N-{5-[2-(2-Fluorophenyl)-2-methoxyacetyl]-6,6-dimethyl-1,4,5,6-tetrahydropyrrolo[3,4-c]pyrazol-3-yl}-1-(trimethylsilyl)cyclobutanecarboxamide], for which the Ki at CDK7 was no more than 0.05 µM.

With `COC(C(=O)N1Cc2c(NC(=O)C3([Si](C)(C)C)CCC3)n[nH]c2C1(C)C)c1cccc(F)c1` (centres unmarked) [IV-1404, N-{5-[2-(3-Fluorophenyl)-2-methoxyacetyl]-6,6-dimethyl-1,4,5,6-tetrahydropyrrolo[3,4-c]pyrazol-3-yl}-1-(trimethylsilyl)cyclobutanecarboxamide], the Ki on CDK7 is no more than 0.05 µM.

`COC(C(=O)N1Cc2c(NC(=O)C3([Si](C)(C)C)CCC3)n[nH]c2C1(C)C)c1cccs1` (centres unmarked) [IV-1546, N-{5-[2-Methoxy-2-(thiophen-2-yl)acetyl]-6,6-dimethyl-1,4,5,6-tetrahydropyrrolo[3,4-c]pyrazol-3-yl}-1-(trimethylsilyl)cyclobutanecarboxamide]: the inhibition constant Ki on CDK7 is no more than 0.05 µM.
